Assay results published in ChEMBL document CHEMBL1909046, “DrugMatrix in vitro pharmacology data”.

Tests used:
Leukotriene C4 synthase = target: T1, Leukotriene C4 synthase (Cavia porcellus, UniProt A6XA80); experiment: biochemical; assay type: tissue-based, Lung;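 note: enzyme inhibition assay of leukotriene C4 synthase, using LTA4 as the substrate; in other assays of this panel Not Active means under 50% inhibition at 10 µM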
T1 sequence (A6XA80 whole entry): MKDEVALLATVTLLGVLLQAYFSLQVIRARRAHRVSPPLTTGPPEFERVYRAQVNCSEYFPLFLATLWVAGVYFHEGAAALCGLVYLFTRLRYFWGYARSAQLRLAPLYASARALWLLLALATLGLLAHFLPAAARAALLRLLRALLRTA

D(4) dopamine receptor = target: T2, D(4) dopamine receptor (Homo sapiens, UniProt P21917); experiment: DRUGMATRIX: Dopamine D4.2 radioligand binding (ligand: [3H] Spiperone); assay type: cell membranes, CHO-K1, Membrane; conditions: cho-k1; Not Active = under 50% inhibition at 10 µM
T2 sequence (P21917 whole entry): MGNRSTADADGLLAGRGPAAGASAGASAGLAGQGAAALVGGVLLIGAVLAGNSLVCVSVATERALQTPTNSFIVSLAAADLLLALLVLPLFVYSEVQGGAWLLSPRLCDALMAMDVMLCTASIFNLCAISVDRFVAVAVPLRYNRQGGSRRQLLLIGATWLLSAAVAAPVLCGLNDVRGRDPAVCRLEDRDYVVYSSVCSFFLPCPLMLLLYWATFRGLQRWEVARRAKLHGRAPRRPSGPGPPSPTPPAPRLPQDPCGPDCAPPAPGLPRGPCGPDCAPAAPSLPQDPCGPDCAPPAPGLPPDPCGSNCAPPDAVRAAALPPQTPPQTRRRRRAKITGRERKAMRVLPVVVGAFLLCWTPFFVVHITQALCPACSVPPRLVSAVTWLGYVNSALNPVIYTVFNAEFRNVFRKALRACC

[1] = target: Beta-1 adrenergic receptor (Homo sapiens, UniProt P08588); experiment: DRUGMATRIX: Adrenergic beta1 radioligand binding (ligand: [125I] Cyanopindolol); assay type: cell membranes, CHO-K1, Membrane; conditions: cho-k1; Not Active = under 50% inhibition at 10 µM
[2] = DRUGMATRIX: Glutamate, NMDA, Phencyclidine radioligand binding (ligand: [3H] TCP); assay type: cell membranes, Rattus norvegicus, Wistar, Cerebral cortex, Membrane; conditions: Not Active = under 50% inhibition at 10 µM
Melanocortin receptor 4 = Melanocortin receptor 4 (Homo sapiens, UniProt P32245); assay type: cell membranes, Membrane; conditions: hek293; note: in other assays of this panel Not Active means under 50% inhibition at 10 µM
Melanocortin receptor 3 = Melanocortin receptor 3 (Homo sapiens, UniProt P41968); assay type: cell membranes, Membrane; conditions: hek293; note: in other assays of this panel Not Active means under 50% inhibition at 10 µM
[3] = DRUGMATRIX: GABAA, Chloride Channel, TBOB radioligand binding (ligand: [3H] TBOB); assay type: cell membranes, Rattus norvegicus, Wistar, Cerebral cortex, Membrane; conditions: Not Active = under 50% inhibition at 10 µM
[4] = target: Vascular endothelial growth factor receptor 1 (Homo sapiens, UniProt P17948); assay type: cell-based; conditions: huvec; note: in other assays of this panel Not Active means under 50% inhibition at 10 µM
[5] = DRUGMATRIX: Calcium Channel Type L, Benzothiazepine radioligand binding (ligand: [3H] Diltiazem); assay type: cell membranes, Rattus norvegicus, Wistar, Brain, Membrane; conditions: Not Active = under 50% inhibition at 10 µM
[6] = DRUGMATRIX: Nicotinic Acetylcholine radioligand binding (ligand: [125I] Epibatidine); assay type: cell membranes, Membrane; conditions: imr-32; Not Active = under 50% inhibition at 10 µM
[7] = DRUGMATRIX: Platelet-Derived Growth Factor (PDGF) radioligand binding (ligand: [125I] PDGF); assay type: cell-based; conditions: nih3t3; Not Active = under 50% inhibition at 10 µM
[8] = target: T3, Neuropeptide Y receptor type 2 (Homo sapiens, UniProt P49146); assay type: cell membranes, Membrane; conditions: kan-ts; note: in other assays of this panel Not Active means under 50% inhibition at 10 µM
T3 sequence (P49146 whole entry): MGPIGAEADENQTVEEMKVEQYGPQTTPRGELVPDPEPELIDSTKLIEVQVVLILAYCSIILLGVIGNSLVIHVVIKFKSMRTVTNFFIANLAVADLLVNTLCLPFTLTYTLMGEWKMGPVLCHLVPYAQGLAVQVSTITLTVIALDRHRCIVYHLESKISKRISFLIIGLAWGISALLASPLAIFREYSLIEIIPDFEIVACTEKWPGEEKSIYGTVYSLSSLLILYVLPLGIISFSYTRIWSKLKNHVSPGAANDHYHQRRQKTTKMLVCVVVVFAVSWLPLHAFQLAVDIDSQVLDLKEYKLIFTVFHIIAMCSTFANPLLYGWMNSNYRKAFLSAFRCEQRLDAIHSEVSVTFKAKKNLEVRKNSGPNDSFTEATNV

Progesterone receptor = target: T4, Progesterone receptor (Bos taurus, UniProt Q690N0); experiment: DRUGMATRIX: Progesterone radioligand binding (ligand: [3H] R-5020); assay type: tissue-based, Uterus; conditions: Not Active = under 50% inhibition at 10 µM
T4 sequence (Q690N0 whole entry): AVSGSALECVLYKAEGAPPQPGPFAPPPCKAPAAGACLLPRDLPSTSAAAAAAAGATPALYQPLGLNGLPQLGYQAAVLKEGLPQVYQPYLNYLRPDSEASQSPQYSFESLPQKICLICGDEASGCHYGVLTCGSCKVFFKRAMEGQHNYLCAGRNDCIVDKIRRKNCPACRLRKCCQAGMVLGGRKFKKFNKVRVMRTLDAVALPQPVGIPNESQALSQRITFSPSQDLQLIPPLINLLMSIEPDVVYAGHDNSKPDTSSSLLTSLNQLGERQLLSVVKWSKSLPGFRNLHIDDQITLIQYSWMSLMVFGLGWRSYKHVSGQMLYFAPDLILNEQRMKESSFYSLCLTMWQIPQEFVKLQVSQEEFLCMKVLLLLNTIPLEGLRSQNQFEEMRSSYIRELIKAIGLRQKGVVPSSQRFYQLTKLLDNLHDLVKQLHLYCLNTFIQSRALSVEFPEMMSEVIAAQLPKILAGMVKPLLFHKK

[9] = target: T5, Alpha-1A adrenergic receptor (Rattus norvegicus, UniProt P43140); experiment: DRUGMATRIX: Alpha-1A adrenergic receptor radioligand binding (ligand: prazosin); assay type: cell membranes, Wistar, Submaxillary gland, Membrane; conditions: Not Active = under 50% inhibition at 10 µM
T5 sequence (P43140 whole entry): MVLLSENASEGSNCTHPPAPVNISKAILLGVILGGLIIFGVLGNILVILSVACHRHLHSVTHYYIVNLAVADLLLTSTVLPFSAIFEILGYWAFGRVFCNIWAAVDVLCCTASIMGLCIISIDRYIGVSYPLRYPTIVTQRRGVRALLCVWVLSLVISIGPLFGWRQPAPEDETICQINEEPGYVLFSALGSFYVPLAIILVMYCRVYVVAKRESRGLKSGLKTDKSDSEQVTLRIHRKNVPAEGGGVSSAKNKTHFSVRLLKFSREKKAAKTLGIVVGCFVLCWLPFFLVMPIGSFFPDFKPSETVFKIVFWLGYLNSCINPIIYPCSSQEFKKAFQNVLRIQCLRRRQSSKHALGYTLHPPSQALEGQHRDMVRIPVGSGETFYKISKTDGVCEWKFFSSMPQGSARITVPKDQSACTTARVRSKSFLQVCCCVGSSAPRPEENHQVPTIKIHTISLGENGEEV

[10] = DRUGMATRIX: beta-Lactamase enzyme inhibition (substrate: Nitrocefin); set-up: species or system Bacillus cereus; conditions: Not Active = under 50% inhibition at 10 µM
[11] = target: Tyrosine-protein kinase Fyn (Homo sapiens, UniProt P06241); experiment: biochemical; assay type: cell-based, Insect cells
Histamine H2 receptor = Histamine H2 receptor (Homo sapiens, UniProt P25021); assay type: cell membranes, CHO-K1, Membrane; conditions: cho-k1; note: in other assays of this panel Not Active means under 50% inhibition at 10 µM
Chain of Histamine H2 receptor (P25021 whole entry): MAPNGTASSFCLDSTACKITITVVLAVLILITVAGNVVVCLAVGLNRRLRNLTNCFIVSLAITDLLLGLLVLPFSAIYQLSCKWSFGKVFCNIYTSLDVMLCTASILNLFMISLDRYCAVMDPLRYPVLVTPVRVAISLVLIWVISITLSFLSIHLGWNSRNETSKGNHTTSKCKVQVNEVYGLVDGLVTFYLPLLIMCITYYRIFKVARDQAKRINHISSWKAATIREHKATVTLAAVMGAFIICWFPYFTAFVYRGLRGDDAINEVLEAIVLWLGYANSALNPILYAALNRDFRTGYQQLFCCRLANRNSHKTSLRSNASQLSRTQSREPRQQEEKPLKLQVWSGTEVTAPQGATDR

Chain of Melanocortin receptor 4 (P32245 whole entry): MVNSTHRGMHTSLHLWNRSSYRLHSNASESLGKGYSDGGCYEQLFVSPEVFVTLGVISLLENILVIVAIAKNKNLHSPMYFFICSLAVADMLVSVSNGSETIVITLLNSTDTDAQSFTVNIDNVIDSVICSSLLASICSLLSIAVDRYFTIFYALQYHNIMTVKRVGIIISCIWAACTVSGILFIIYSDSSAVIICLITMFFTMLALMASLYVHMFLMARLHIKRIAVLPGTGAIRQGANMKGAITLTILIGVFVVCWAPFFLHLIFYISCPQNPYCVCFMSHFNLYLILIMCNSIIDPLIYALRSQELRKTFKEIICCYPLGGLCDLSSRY
Chain of Melanocortin receptor 3 (P41968 whole entry): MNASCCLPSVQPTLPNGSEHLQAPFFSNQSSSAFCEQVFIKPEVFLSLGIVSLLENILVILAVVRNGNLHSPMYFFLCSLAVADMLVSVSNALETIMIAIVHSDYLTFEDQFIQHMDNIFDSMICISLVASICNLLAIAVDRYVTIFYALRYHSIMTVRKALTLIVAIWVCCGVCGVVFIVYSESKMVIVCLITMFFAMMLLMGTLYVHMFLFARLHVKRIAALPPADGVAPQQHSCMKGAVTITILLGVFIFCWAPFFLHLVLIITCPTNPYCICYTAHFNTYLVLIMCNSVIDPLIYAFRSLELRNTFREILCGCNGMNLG
Chain of Beta-1 adrenergic receptor (P08588 whole entry): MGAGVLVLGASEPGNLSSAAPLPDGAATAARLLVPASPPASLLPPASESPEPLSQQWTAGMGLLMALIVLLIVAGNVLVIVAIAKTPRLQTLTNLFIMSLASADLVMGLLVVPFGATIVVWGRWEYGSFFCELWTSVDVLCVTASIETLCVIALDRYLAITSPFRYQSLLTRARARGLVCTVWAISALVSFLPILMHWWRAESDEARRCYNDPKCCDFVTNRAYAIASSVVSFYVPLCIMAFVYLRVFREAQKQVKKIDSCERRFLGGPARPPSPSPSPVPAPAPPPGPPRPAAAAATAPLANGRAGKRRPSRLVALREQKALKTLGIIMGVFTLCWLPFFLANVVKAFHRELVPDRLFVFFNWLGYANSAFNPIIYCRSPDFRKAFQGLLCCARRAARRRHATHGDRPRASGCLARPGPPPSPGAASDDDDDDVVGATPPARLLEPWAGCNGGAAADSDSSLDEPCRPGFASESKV
Chain of Vascular endothelial growth factor receptor 1 (P17948 whole entry): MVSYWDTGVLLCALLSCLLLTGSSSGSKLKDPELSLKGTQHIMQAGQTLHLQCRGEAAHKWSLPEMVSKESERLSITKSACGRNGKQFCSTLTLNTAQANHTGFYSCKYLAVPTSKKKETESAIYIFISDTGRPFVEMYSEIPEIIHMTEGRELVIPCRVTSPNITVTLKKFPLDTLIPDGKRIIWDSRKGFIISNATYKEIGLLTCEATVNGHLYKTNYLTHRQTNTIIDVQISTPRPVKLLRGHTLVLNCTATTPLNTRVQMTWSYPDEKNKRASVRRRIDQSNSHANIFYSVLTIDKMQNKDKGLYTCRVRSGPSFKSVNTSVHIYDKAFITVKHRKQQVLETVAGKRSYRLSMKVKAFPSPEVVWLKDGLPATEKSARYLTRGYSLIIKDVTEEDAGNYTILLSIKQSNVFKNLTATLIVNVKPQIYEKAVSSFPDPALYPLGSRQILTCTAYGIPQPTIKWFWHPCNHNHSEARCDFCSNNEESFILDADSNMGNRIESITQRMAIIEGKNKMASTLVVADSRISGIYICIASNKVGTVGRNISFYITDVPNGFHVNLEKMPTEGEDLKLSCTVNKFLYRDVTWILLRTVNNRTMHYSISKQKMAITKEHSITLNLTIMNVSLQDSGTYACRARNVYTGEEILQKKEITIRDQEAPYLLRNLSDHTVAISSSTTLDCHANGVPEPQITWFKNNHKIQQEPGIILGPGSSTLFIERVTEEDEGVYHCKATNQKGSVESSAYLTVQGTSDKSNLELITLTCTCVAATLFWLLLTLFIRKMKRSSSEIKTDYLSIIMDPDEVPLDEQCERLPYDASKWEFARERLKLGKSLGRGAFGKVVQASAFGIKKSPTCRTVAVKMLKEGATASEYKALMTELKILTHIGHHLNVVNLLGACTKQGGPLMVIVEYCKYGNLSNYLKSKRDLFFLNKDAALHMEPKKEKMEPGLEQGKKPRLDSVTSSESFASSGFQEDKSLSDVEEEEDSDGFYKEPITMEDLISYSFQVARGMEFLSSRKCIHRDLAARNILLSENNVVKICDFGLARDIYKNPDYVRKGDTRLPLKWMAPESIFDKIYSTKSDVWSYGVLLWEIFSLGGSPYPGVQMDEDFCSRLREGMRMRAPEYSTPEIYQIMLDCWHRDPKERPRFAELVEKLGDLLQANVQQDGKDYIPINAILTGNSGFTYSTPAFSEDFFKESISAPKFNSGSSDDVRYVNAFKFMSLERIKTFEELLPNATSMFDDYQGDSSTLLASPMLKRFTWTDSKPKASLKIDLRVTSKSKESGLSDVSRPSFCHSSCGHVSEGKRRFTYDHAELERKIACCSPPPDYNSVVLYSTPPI
Chain of Tyrosine-protein kinase Fyn (P06241 whole entry): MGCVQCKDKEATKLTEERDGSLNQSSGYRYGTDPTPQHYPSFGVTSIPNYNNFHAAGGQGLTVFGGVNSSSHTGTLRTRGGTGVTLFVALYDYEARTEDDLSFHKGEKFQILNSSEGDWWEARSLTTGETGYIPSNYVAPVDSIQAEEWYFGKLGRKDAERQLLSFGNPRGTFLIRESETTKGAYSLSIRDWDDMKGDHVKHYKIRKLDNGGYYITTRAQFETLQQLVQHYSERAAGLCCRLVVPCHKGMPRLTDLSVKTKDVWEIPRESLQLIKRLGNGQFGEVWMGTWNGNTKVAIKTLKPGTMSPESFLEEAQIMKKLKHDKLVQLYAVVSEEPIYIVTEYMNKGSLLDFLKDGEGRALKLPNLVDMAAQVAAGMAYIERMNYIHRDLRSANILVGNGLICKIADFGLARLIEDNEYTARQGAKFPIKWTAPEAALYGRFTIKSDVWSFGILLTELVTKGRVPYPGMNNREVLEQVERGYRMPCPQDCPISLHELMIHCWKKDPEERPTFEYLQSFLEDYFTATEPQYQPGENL

Row | SMILES | IC50 (Leukotriene C4 synthase) | IC50 (D(4) dopamine receptor) | IC50 [2] | Ki [2] | IC50 (Melanocortin receptor 4) | IC50 (Melanocortin receptor 3) | IC50 [3] | Ki [3] | IC50 [4] | IC50 [5] | Ki [5] | IC50 [6] | Ki [6] | IC50 [7] | Ki [7] | IC50 [8] | IC50 (Progesterone receptor) | IC50 [10] | Ki [10] | IC50 (Histamine H2 receptor) | further results
1 | CC1(C)[C@H]2CC[C@]1(C)C(=O)C2 [(-)-CAMPHOR] | Not Active | Not Active | Not Active | Not Active | Not Active | Not Active | Not Active | Not Active | Not Active | Not Active | Not Active | Not Active | Not Active | Not Active | Not Active | Not Active | Not Active | Not Active | Not Active | Not Active | IC50 [1]: Not Active; IC50 [9]: Not Active; IC50 ([11]; insect cells): Not Active
2 | Oc1c(I)cc(I)c2cccnc12 [IODOQUINOL] | Not Active | Not Active | Not Active | Not Active | Not Active | Not Active | Not Active | Not Active | Not Active | Not Active | Not Active | Not Active | Not Active | Not Active | Not Active | Not Active | Not Active | Not Active | Not Active | Not Active | IC50 [1]: Not Active; IC50 [9]: Not Active; IC50 ([11]; read-out: IC50): 1570 nM
3 | NNC(=O)c1ccncc1 [ISONIAZID] | Not Active | Not Active | Not Active | Not Active | Not Active | Not Active | Not Active | Not Active | Not Active | Not Active | Not Active | Not Active | Not Active | Not Active | Not Active | Not Active | Not Active | Not Active | Not Active | Not Active | IC50 [1]: Not Active; IC50 [9]: Not Active; IC50 ([11]; insect cells): Not Active
4 | CC1=C(/C=C/C(C)=C/C=C/C(C)=C\C(=O)O)C(C)(C)CCC1 [ISOTRETINOIN] | Not Active | Not Active | Not Active | Not Active | Not Active | Not Active | Not Active | Not Active | Not Active | Not Active | Not Active | Not Active | Not Active | Not Active | Not Active | Not Active | Not Active | Not Active | Not Active | Not Active | Ki [1]: Not Active; IC50 [9]: Not Active; IC50 ([11]; insect cells): Not Active
5 | CO[C@@H]1[C@@H](O[C@@H]2O[C@H](C)[C@@H](O[C@H]3C[C@@](C)(O)[C@@H](OC(=O)CC(C)C)[C@H](C)O3)[C@H](N(C)C)[C@H]2O)[C@@H](CC=O)C[C@@H](C)[C@@H](O)/C=C/C=C/C[C@@H](C)OC(=O)C[C@H]1O [KITASAMYCIN] | Not Active | Not Active | Not Active | Not Active | Not Active | Not Active | Not Active | Not Active | Not Active | Not Active | Not Active | Not Active | Not Active | Not Active | Not Active | Not Active | Not Active | Not Active | Not Active | Not Active | IC50 [1]: Not Active; IC50 ([9]; read-out: IC50): 1540 nM; Ki ([9]; read-out: Ki): 625 nM; IC50 ([11]; insect cells): Not Active
6 | Nc1nnc(-c2cccc(Cl)c2Cl)c(N)n1 [LAMOTRIGINE] | Not Active | Not Active | Not Active | Not Active | Not Active | Not Active | Not Active | Not Active | Not Active | Not Active | Not Active | Not Active | Not Active | Not Active | Not Active | Not Active | Not Active | Not Active | Not Active | Not Active | IC50 [1]: Not Active; IC50 [9]: Not Active; IC50 ([11]; insect cells): Not Active
